{
  "source": "patent US20230248766A1",
  "about": "“METHODS OF TREATING OXIDATIVE STRESS TO MODULATE REDOX BALANCE, PREVENTING OXIDATIVE STRESS INDUCED CELL DAMAGE AND DEATH” (Redox Balance, LLC, priority 2019, published 2023)",
  "key": {"[1]": {"tested_on": "tomato plants", "test": "Plant growth enhancement by treatment with water-soluble C60", "type": "in vivo", "text": "Treated plants weighed 2X untreated plants. […] Example 7. […] Treated plants weighed 2× untreated plants."}, "[2]": {"tested_on": "seeds", "test": "Seed pre-treatment to enhance germination", "type": "in vivo", "conditions": "soaking seeds for 1 hour prior to placing in growing medium"}},
  "data": [
    {"substance": "polyhydroxy-C60", "values": [
      {"measurement": "weight of treated plants relative to untreated plants", "setting": "[1]; tomato plants after two weeks", "result": 2, "unit": "X"},
      {"measurement": "increases in growth rate", "setting": "[1]; treatment of clones before initial planting", "result": "up to two times"},
      {"measurement": "germination", "setting": "[2]", "result": "significant enhancement of germination"}
    ]}
  ]
}
